Results as given in publication PMC6384991, “5-Arylideneimidazolones with Amine at Position 3 as Potential Antibiotic Adjuvants against Multidrug Resistant Bacteria” (Molecules, 2019).
Where two headings read alike, the source gives them in different places. Residues, ends and D or L forms follow the SMILES beside them. *: point of attachment. βNA = c1ccc2cc(N*)ccc2c1

Tests used:
E. aerogenes Ea-289 = experiment: MIC (microdilution) against E. aerogenes Ea-289 overexpressing AcrAB-TolC, porin-deficient; settings: for MIC: Klebsiella aerogenes; for increase of MIC for Ea-289 and CM-64 in comparison to Ea-298 and Ea-294: efflux overexpressing vs deficient strains
E. aerogenes CM-64 = experiment: MIC (microdilution) against E. aerogenes CM-64 overexpressing AcrAB-TolC; settings: Klebsiella aerogenes
[1] = system: E. aerogenes Ea-294, Ea-298; experiment: MIC (microdilution) against E. aerogenes strains devoid of AcrAB / TolC; settings: Klebsiella aerogenes
S. aureus ATCC 25923 = experiment: Intrinsic antibacterial activity (MIC, microdilution) against reference S. aureus strain; format: cell-based; settings: Staphylococcus aureus
Experimental: (§1) Initially, 12 arylideneimidazolone derivatives were evaluated in vitro for their intrinsic antibacterial effect against two strains of S. aureus: the reference strain S. aureus ATCC 25923 and extremely-drug resistant (XDR) MRSA HEMSA 5 clinical isolate. This step of the study was necessary for: (i) elucidation whether molecules tested are devoid of antistaphylococcal activity and thus cannot become antimicrobial agents by themselves; and (ii) determination of the concentrations of compounds suitable for the further assay on their antibiotic adjuvant potency. In addition, the antistaphylococcal efficacy of oxacillin, which was paired with compounds tested, in the following assays was also assessed (Table 3).

MRSA HEMSA 5 [2] = experiment: Intrinsic antibacterial activity (MIC, microdilution) against MRSA HEMSA 5; format: cell-based, S. aureus; settings: for MIC: Staphylococcus aureus
Experimental: as §1

MRSA HEMSA 5 [3] = experiment: MIC reduction assay: influence on oxacillin susceptibility in MRSA; format: cell-based, S. aureus; settings: MRSA HEMSA 5
Experimental: The lack of a direct antibacterial activity of arylideneimidazolone derivatives tested allowed analyzing their anti-resistance potency in combination with the β-lactam antibiotic, oxacillin. […] The potential of compounds to become antibiotic adjuvants was evaluated by comparing the drug effectiveness in the presence and absence of compounds tested, thereby, by determining activity gain parameter A (Table 5). […] Slightly lower adjuvant-like activity was determined for the imidazolone derivatives 7 and 10 (A = 8–16). The efficacy of the remaining compounds was slightly less marked, however, also significant. Although compounds tested improved noticeably the antibacterial activity of oxacillin against MRSA clinical isolate, none of them restored the activity of the antibiotic (MIC < 2 µg/mL) against this highly resistant strain.

[4] = system: AcrAB-TolC efflux pump in E. aerogenes Ea-289; experiment: Real-time efflux (RTE) assay with 1,2'-dNA; settings: compound 100 µM; Ea-289 strain
[5] = EA289, read-out: MIC (in brackets)
[6] = CM64, read-out: MIC (in brackets)
[7] = ATCC25923, S. aureus ATCC 25923, compound alone, MH II broth, read-out: MIC Value
[8] = MRSA HEMSA 5, compound alone, MH II broth, read-out: MIC Value

Compound	melting point [°C]	MIC (E. aerogenes Ea-289; EA289) [µM]	MIC (E. aerogenes CM-64; CM64) [µM]	MIC [1] [µM]	reduction of MIC of oxacillin (MRSA HEMSA 5 [3]) [fold]	MIC (S. aureus ATCC 25923; [7]) [µM]	MIC (MRSA HEMSA 5 [2]; [8]) [µM]	also measured
CN1CCN(CCCN2C(=O)/C(=C/c3ccc(Cl)cc3)N=C2N)CC1.Cl (hydrate or solvate) [Compound 7, (Z)-5-(4-chlorobenzylidene)-2-amino-3-(3-(4-methylpiperazin-1-yl)propyl)-3H-imidazol-4(5H)-one hydrochloride]	294							
COc1ccc(/C=C2\N=C(N)N(CCCN3CCN(C)CC3)C2=O)cc1.Cl (hydrate or solvate) [Compound 8, (Z)-5-(4-Methoxybenzylidene)-2-amino-3-(3-(4-methylpiperazin-1-yl)propyl)-3H-imidazol-4(5H)-one hydrochloride]	262							
O=C(N[C@H](CO)[C@H](O)c1ccc([N+](=O)[O-])cc1)C(Cl)Cl [Chloramphenicol]		3200	1600	200				MIC (E. aerogenes Ea-289; [5]): 1020 µg/mL; MIC (E. aerogenes CM-64; [6]): 512 µg/mL; MIC ([1]; read-out: MIC (in brackets)): 64 µg/mL
CN1CCN(C2=N/C(=C\c3ccc(Cl)cc3)C(=O)N2)CC1 [Compound 6, (Z)-5-(4-chlorobenzylidene)-2-(4-methylpiperazin-1-yl)-3H-imidazol-4(5H)-one]					8			MIC (S. aureus ATCC 25923; ATCC25923, read-out: MIC Value): 2000 µM; MIC (MRSA HEMSA 5 [2]; MRSA, read-out: MIC Value): 1000 µM
CN1CCN(CCCN2C(=O)/C(=C/c3ccc(Cl)cc3)N=C2N)CC1.Cl [Compound 7, (Z)-5-(4-chlorobenzylidene)-2-amino-3-(3-(4-methylpiperazin-1-yl)propyl)-3H-imidazol-4(5H)-one hydrochloride]					16	500 to 1000	1000	
COc1ccc(/C=C2\N=C(N)N(CCCN3CCN(C)CC3)C2=O)cc1.Cl [Compound 8, (Z)-5-(4-Methoxybenzylidene)-2-amino-3-(3-(4-methylpiperazin-1-yl)propyl)-3H-imidazol-4(5H)-one hydrochloride]					8	> 2000	> 2000	
CN1CCN(CCCN2C(=O)/C(=C/c3cc4ccccc4c4ccccc34)N=C2N)CC1.Cl [Compound 10, (Z)-2-Amino-3-(3-(4-methylpiperazin-1-yl)propyl)-5-(phenanthren-9-ylmethylene)-3H-imidazol-4(5H)-one hydrochloride]	266 to 268	1000	1000	500		> 125	> 125	Inhibitory efficiency (IE) of 1,2'-dNA efflux [4]: 60%
CN1CCN(CCCN2C(=O)/C(=C/c3c4ccccc4cc4ccccc34)N=C2N)CC1.Cl [Compound 11, (Z)-2-Amino-5-(anthracen-10-ylmethylene)-3-(3-(4-methylpiperazin-1-yl)propyl)-3H-imidazol-4(5H)-one hydrochloride]	246 to 248	> 2000	> 2000	500		500	500	increase of MIC for Ea-289 and CM-64 in comparison to Ea-298 and Ea-294 (E. aerogenes Ea-289): ≥ 4 fold; Inhibitory efficiency (IE) of 1,2'-dNA efflux [4]: 37%
CN1CCN(CCCN2C(=O)/C(=C/c3ccc(Oc4ccccc4)cc3)N=C2N)CC1 [Compound 12, (Z)-5-(4-Phenoxybenzylidene)-2-amino-3-(3-(4-methylpiperazin-1-yl)propyl)-3H-imidazol-4(5H)-one]	220 to 230	2000	2000	1000	8			Inhibitory efficiency (IE) of 1,2'-dNA efflux [4]: 64%; MIC (S. aureus ATCC 25923; ATCC25923, read-out: MIC Value): 250 µM; MIC (MRSA HEMSA 5 [2]; MRSA, read-out: MIC Value): 250 to 500 µM
CN1CCN(CCCN2C(=O)/C(=C/c3cccc4ccccc34)N=C2N)CC1.Cl [Compound 15, (Z)-2-Amino-3-(3-(4-methylpiperazin-1-yl)propyl)-5-(naphthalen-1-ylmethylene)-3H-imidazol-4(5H)-one hydrochloride]	187 to 191					1000	1000 to 2000	
Cl.NC1=N/C(=C\c2c3ccccc3cc3ccccc23)C(=O)N1CCCN1CCOCC1 [Compound 16, (Z)-2-Amino-5-(anthracen-10-ylmethylene)-3-(3-morpholinopropyl)-3H-imidazol-4(5H)-one hydrochloride]	244 to 246	> 2000	> 2000	2000		> 125	> 125	Inhibitory efficiency (IE) of 1,2'-dNA efflux [4]: 44%
Cl.NC1=N/C(=C\c2cccc(Oc3ccccc3)c2)C(=O)N1CCCN1CCOCC1 [Compound 17, (Z)-5-(3-phenoxybenzylidene)-2-amino-3-(3-morpholinopropyl)-3H-imidazol-4(5H)-one hydrochloride]	227 to 230	> 2000	> 2000	500	2	250	250	increase of MIC for Ea-289 and CM-64 in comparison to Ea-298 and Ea-294 (E. aerogenes Ea-289): ≥ 4 fold; Inhibitory efficiency (IE) of 1,2'-dNA efflux [4]: 61%
C[C@H]1c2cccc(O)c2C(=O)C2=C(O)[C@]3(O)C(=O)C(C(N)=O)=C(O)[C@@H](N(C)C)[C@@H]3[C@@H](O)[C@@H]21 [Doxycycline]		18	72	5				MIC (E. aerogenes Ea-289; [5]): 8 µg/mL; MIC (E. aerogenes CM-64; [6]): 32 µg/mL; MIC ([1]; read-out: MIC (in brackets)): 2 µg/mL
CC[C@H]1OC(=O)[C@H](C)[C@@H](O[C@H]2C[C@@](C)(OC)[C@@H](O)[C@H](C)O2)[C@H](C)[C@@H](O[C@@H]2O[C@H](C)C[C@H](N(C)C)[C@H]2O)[C@](C)(O)C[C@@H](C)C(=O)[C@H](C)[C@@H](O)[C@]1(C)O [Erythromycin]		350	700	5				MIC (E. aerogenes Ea-289; [5]): 256 µg/mL; MIC (E. aerogenes CM-64; [6]): 512 µg/mL; MIC ([1]; read-out: MIC (in brackets)): 4 µg/mL
CCn1cc(C(=O)O)c(=O)c2cc(F)c(N3CCNCC3)cc21 [Norfloxacin, norfloxacin]		200	6	50				MIC (E. aerogenes Ea-289; [5]): 64 µg/mL; MIC (E. aerogenes CM-64; [6]): 2 µg/mL; MIC ([1]; read-out: MIC (in brackets)): 16 µg/mL
Cc1onc(-c2ccccc2)c1C(=O)N[C@@H]1C(=O)N2[C@@H]1SC(C)(C)[C@@H]2C(=O)O [Oxacillin, reference compound]						0.59	1210	MIC (S. aureus ATCC 25923; ATCC25923, S. aureus ATCC 25923, read-out: MIC Value (in brackets)): 0.25 µg/mL; MIC (MRSA HEMSA 5 [2]; MRSA HEMSA 5, read-out: MIC Value (in brackets)): 512 µg/mL
NC(N)=NCCC[C@H](NC(=O)[C@@H](N)Cc1ccccc1)C(=O)Nc1ccc2ccccc2c1 [PaβN] (H-Phe-Arg-βNA)		500	500	125				
(Z)-2-Amino-5-(biphen-4-ylmethylene)-3-(2-(4-methylpiperazin-1-yl)ethyl)-3H-imidazol-4(5H)-one hydrochloride [Compound 14]					8			MIC Value (MRSA HEMSA 5 [2]; MRSA HEMSA 5, compound alone, MH II broth): 250 µM
